In patent US20140093641A1, “LUBRICANT COMPOSITIONS CONTAINING FLUOROOXIRANES” (3MM INNOVATIVE PROPERTIES COMPANY, priority 2011, published 2014):

How the values were obtained:
rats = assay: Short-term inhalation test (acute toxicity); format: in vivo; details: rats exposed for four hours at 50,000 ppm in air
[1] = Solubility testing of lubricants, additives and impurities in deposition solvents; format: physicochemical
Procedure: A disposable glass vial was placed on a four-place balance and the mass (MV) recorded. The balance with the glass vial was tared and deposition solvent was added (varying from 1 g to 5 g) and the mass (MS) was recorded. The balance with the deposition solvent in the glass vial was tared again. The lubricant was added in a dropwise fashion using a disposable plastic pipet and the mass (ML) recorded. The glass vial was then mixed by hand for 10 seconds to 30 seconds and the solution clarity was visually observed and recorded. If the solution was hazy, the lubricant was considered to have exceeded the solubility limit of the deposition solvent. If the solution was clear, additional drops of lubricant were added to the glass vial, the mass (ML) was recorded, the glass vial was shaken, and the solution clarity was observed. This process was continued until a hazy solution was observed or more than 10% w/w (weight of lubricant to combined weight of lubricant and deposition solvent) was reached. After a hazy solution or more than 10% w/w was reached, the glass vial with the solution was removed from the balance. The balance was tared and the final mass (MF) of the glass vial with deposition solvent and lubricant was measured and recorded. To account for the evaporative losses of the deposition solvent during the experiment, the mass of the vial and the mass of the lubricant added were subtracted from the total mass of the vial with the deposition solvent and lubricant to determine the final mass of deposition solvent (MS*) in the vial (i.e., MS*=MF−MV−ML). Solubility of the lubricant in deposition solvents was calculated as ML/(ML+MS*) and reported in % w/w (weight/weight).
If the endpoint was not clearly observed, the solubility experiment was repeated. Where a range is reported for solubility, the lower number is the highest soluble value and the higher number is the lowest insoluble value.

Compound	acute toxicity, short-term inhalation (rats)	Solubility in C6 Oxirane [1] [%]	Solubility in C9 Oxirane [1] [%]	Solubility in NOVEC 7100 [1] [%]	Solubility in PF-5060DL [1] [%]	Solubility in VERTREL XF [1] [%]
FC(F)(F)C1(F)OC1(F)C(F)(C(F)(F)F)C(F)(F)F (stereo not drawn) [C6 Oxirane, 2,3-difluoro-2-(1,2,2,2-tetrafluoro-1-trifluoromethyl-ethyl)-3-trifluoromethyl-oxirane]	low acute toxicity	–	–	–	–	–
CCCCCCCCOC(=O)c1ccccc1C(=O)OCCCCCCCC [DOP, Dioctylphthlate]	–	<0.9	<1.1	5.1	<0.005	>30
